# Reference: US8410282B2, “Compounds as adenosine A1 receptor antagonists” (Palobiofarma, S.L., priority 2007, dated 2013)
# How the values were obtained:
# [1] = target: T1, hA1 receptors (Homo sapiens, UniProt P30542); test: Adenosine receptor subtype competition radioligand binding assay, hA1; settings: membranes from hA1 receptors transfected to CHO cells, [3H]-DPCPX as radioligand, 90 min at 25° C.; read-out: A1 Antagonism (Ki nM)
# T1 construct: purchased Receptor Biology, Inc. (USA); host or cells: CHO cells
# T1 sequence (P30542 1-326): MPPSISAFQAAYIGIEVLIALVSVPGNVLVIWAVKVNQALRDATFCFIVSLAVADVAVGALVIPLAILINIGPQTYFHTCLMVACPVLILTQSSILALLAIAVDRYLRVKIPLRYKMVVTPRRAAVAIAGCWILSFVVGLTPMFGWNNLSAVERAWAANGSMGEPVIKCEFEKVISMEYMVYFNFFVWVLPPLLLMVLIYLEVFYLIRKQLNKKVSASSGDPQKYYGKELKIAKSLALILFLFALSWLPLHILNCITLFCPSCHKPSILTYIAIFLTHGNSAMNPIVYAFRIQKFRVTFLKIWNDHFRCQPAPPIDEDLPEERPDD
# Procedure: (§1) Pharmacological Activity Adenosine Receptor Subtype Competition Radioligand Binding Assay
# (§2) Human membranes from recombinant adenosine receptors were purchased from Receptor Biology, Inc. (USA)
# Competition assays were carried out by incubation of membranes from hA1 receptors transfected to CHO cells, [^3H]-DPCPX as radioligand, buffer (HEPES 20 mM (pH=7.4), 10 mM MgCl2, 100 mM NaCl, 2 units/ml adenosine deaminase), and unlabelled ligand in a total volume of 0.2 ml for 90 min at 25° C. R-PIA was used to determinate non-specific binding. Filter over Schleicher & Schuell GF/52 filters (pre-soaked 0.5% polyethylenimine) in a Brandel cell harvester. Unbound radioligand was removed with HEPES 30 mM (3×250 μl), NaCl (100 mM) and MgCl2 (10 mM).
# [2] = target: T2, hA2a receptors (Homo sapiens, UniProt P29274); test: Adenosine receptor subtype competition radioligand binding assay, hA2a; settings: membranes from hA2a receptors transfected to HEK293 cells, [3H]ZM241385 as radioligand, 90 min at 25° C.; read-out: A2a Antagonism (Ki nM)
# T2 construct: purchased Receptor Biology, Inc. (USA); host or cells: HEK293 cells
# Procedure: as §1, §2
# Competition assays were carried out by incubation of membranes from hA2a receptors transfected to HEK293 cells, [^3H]ZM241385 as radioligand, buffer (50 mM Tris-HCl (pH=7.4), 10 mM MgCl2, 1 mM […], 2 units/ml adenosine deaminase), and unlabelled ligand in a total volume of 0.2 ml for 90 min at 25° C. NECA was used to determinate non-specific binding. Filter over Schleicher & Schuell GF/52 filters (pre-soaked 0.5% polyethylenimine) in a Brandel cell harvester. Unbound radioligand was removed with 3×3 ml ice-cold 50 mM Tris-HCl (pH=7.4), 0.9% NaCl.
# T2 sequence (P29274 whole entry): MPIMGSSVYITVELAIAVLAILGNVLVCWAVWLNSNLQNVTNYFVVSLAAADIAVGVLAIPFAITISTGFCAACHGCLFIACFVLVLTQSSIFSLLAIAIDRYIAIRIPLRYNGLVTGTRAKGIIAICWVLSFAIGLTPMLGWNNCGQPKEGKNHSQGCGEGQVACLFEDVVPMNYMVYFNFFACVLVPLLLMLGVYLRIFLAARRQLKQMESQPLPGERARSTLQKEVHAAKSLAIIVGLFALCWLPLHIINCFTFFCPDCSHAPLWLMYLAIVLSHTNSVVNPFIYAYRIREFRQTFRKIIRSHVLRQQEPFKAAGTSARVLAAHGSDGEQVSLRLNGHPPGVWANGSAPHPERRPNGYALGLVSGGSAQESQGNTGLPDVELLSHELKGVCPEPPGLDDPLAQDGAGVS
Structure (SMILES),Ki [1] [nM],Ki [2] [nM]
"N#Cc1sc(NC(=O)[C@H]2CC[C@@H](C(=O)O)CC2)nc1-c1cccc(F)c1 [Example 77, Cis-4-[5-cyano-4-(3-fluorophenyl)-1,3-thiazol-2-ylcarbamoyl]cyclohexanecarboxylic Acid]",6,776
"N#Cc1sc(NC(=O)[C@H]2CC[C@@H](C(=O)O)CC2)nc1-c1ccccc1 [Example 10, Cis-4-(5-cyano-4-phenyl-1,3-thiazol-2-ylcarbamoyl)cyclohexane Carboxylic Acid]",7,1080
"N#Cc1sc(NC(=O)[C@@H]2CCC[C@H](C(=O)O)C2)nc1-c1cccc(F)c1 (relative stereo) [Example 75, Cis-3-[5-cyano-4-(3-fluorophenyl)-1,3-thiazol-2-ylcarbamoyl]cyclohexanecarboxylic Acid]",14,1840
"N#Cc1sc(NC(=O)C2CCC(C(=O)O)C2)nc1-c1ccccc1 (stereo not shown) [Example 5, 3-(5-cyano-4-phenyl-1,3-thiazol-2-ylcarbamoyl)cyclopentane Carboxylic Acid]",6.4,940
"N#Cc1sc(NC(=O)[C@@H]2CC[C@H](C(=O)O)C2)nc1-c1ccccc1F (relative stereo) [Example 50, Cis-3-[5-cyano-4-(2-fluorophenyl)-1,3-thiazol-2-ylcarbamoyl]cyclopentanecarboxylic Acid]",16,> 1300
"CC(C)(CCC(=O)O)C(=O)Nc1nc(-c2cccc(F)c2)c(C#N)s1 [Example 68, 4-[5-cyano-4-(3-fluorophenyl)-1,3-thiazol-2-ylcarbamoyl]-4-methylpentanoic Acid]",51,> 4000
"N#Cc1sc(NC(=O)[C@H]2CC[C@H](C(=O)O)CC2)nc1-c1cccc(Cl)c1 [Example 36, trans-4-[4-(3-chlorophenyl)-5-cyano-1,3-thiazol-2-ylcarbamoyl]cyclohexanecarboxylic Acid]",25,487
"CC(C)(CCC(=O)O)C(=O)Nc1nc(-c2ccccc2)c(C#N)s1 [Example 2, 4-(5-cyano-4-phenyl-1,3-thiazol-2-ylcarbamoyl)-4-methylpentanoic Acid]",43,> 10000
"N#Cc1sc(NC(=O)[C@@H]2CCC[C@H](C(=O)O)C2)nc1-c1ccccc1Cl (relative stereo) [Example 26, Cis-3-[4-(2-chlorophenyl)-5-cyano-1,3-thiazol-2-ylcarbamoyl]cyclohexanecarboxylic Acid]",31,3670
"N#Cc1sc(NC(=O)[C@@H]2CCC[C@H](C(=O)O)C2)nc1-c1ccccc1 (relative stereo) [Example 8, Cis-3-(5-cyano-4-phenyl-1,3-thiazol-2-ylcarbamoyl)cyclohexane Carboxylic Acid]",17,> 1200
"N#Cc1sc(NC(=O)[C@@H]2CCC[C@H](C(=O)O)C2)nc1-c1cc(F)cc(F)c1 (relative stereo) [Example 114, Cis-3-[5-cyano-4-(3,5-difluorophenyl)-1,3-thiazol-2-ylcarbamoyl]cyclohexanecarboxylic Acid]",32,> 10000
